Reference: patent publication US10813920B2, “Drug for treating corneal endothelium by promoting cell proliferation or inhibiting cell damage” (THE DOSHISHA, priority 2013, dated 2020)

Key:
[1] = system: human corneal endothelial cells; assay: Decrease in cell density of cultured human corneal endothelial cells (phase difference microscope); format: cell-based; settings: 1, 3, 10 μM; after 20 days; vs control
Description: For corneal endothelial cells, cell density decreases about 0.5% annually with age in a living organism. Further, the cell density also decreases due to various corneal endothelial diseases. Cell culture causes hypertrophy of cells and cellular as in a living organism and cellular senescence like reduction as in a living organism, which is a decrease in cell density. In this regard, the effect of p38 MAP kinase signal inhibition was studied on cellular senescence like reduction, which is a decrease in corneal endothelial cell density. […] Decrease in cell density due to culturing was inhibited and the cell density increased in an SB203580 concentration-dependent manner (bottom panel: vertical axis indicates cell density (mm^2) and the horizontal axis indicates, from the left, control, SB203580 1 μM, 3 μM, and 10 μM. ** indicates statistical significance (p<0.05) with respect to the control).
Cellular senescence-like decrease similar to a living organism, such as hypertrophy and decrease in density of cells, occurs from cell culture. In this regard, the effect of p38 MAP kinase signal inhibition on cellular senescence-like decrease such as decrease in corneal endothelial cell density was studied. […]

[2] = system: corneal endothelial cells; assay: Western blot of apoptosis molecules after UV irradiation; format: cell-based; settings: UV 100 J/m^2, 10 μM
Experimental: *Human corneal endothelial cells (HCEC, where the cells were obtained and culturing method thereof): HCEC was cultured as follows. In short, Descemet's membrane including corneal endothelial cells was peeled off from a corneal for research purchased from the Seattle Eye Bank, and the corneal endothelial cells were mechanically peeled off with a basal membrane. After collagenase (ROCHE catalog No: 10 103 586 001) was used to detach and collect the corneal endothelial cell from the basal membrane (typically 1 mg/mL collagenase A (Roche Applied Science) was used for treatment at 37° C. for 2 hours), the cells were subjected to primary culture. The medium used was Opti-MEM I Reduced-Serum Medium, Liquid (INVITROGEN catalog No.: 31985-070) to which 8% fetal bovine serum (FBS) (BIOWEST, catalog No.: S1820-500), […] of CaCl2.2H2O (SIGMA catalog No.: C7902-500G), 0.08% of chondroitin sulfate (SIGMA catalog No.: C9819-5G), 20 μg/ml of ascorbic acid (SIGMA catalog No.: A4544-25G), 50 μg/ml of gentamicin (INVITROGEN catalog No.: 15710-064) and 5 ng/ml of EGF (INVITROGEN catalog No.: PHG0311) were added and acclimated for a 3T3 feeder cell. Specifically, after digestion at 37° C., HCEC obtained from individual corneas was resuspended in a culture medium and plated on a well of a 12-well plate coated with FNC Coating Mix®. The culture medium was prepared in accordance with a partially-modified disclosed protocol. In short, a basal cultural medium containing OptiMEM-I (Life Technologies), 8% FBS, 5 ng/mL of epithelial growth factor (EGF) (Sigma-Aldrich Co., St. Louis, Mo.), 20 μg/mL of ascorbic acid (Sigma-Aldrich), 200 mg/L calcium chloride (Sigma-Aldrich), 0.08% chondroitin sulfate (Wako Pure Chemical Industries, Osaka) and 50 μg/mL of gentamicin was prepared and an acclimated medium was collected after inactivated 3T3 fibroblasts were cultured. The 3T3 fibroblasts were inactivated as previously described. […] Immunostaining was applied to the cells for observation with a fluorescence microscope. […]

SMILES: C[S+]([O-])c1ccc(-c2nc(-c3ccncc3)c(-c3ccc(F)cc3)[nH]2)cc1 (stereo not shown) [SB203580, 4-(4-fluorophenyl)-2-(4-methylsulfinylphenyl)-5-(4-pyridyl)-1H-imidazole]
- Decrease in cell density due to culture [1]: inhibited in a SB203580 concentration dependent manner
- activation by cleavage of PARP due to UV irradiation [2]: suppresses
- activation by cleavage of caspase 3 due to UV irradiation [2]: suppresses
- phosphorylated histone H2AX induced by UV irradiation [2]: suppresses
